The results in this text go back to US6887896B1, “7-[(7-Alkoxy)-chrom-3-en-6-yl]-heptatrienoic acid and 7-[(3-alkoxy)-5,6-dihydronaphthalen-2-yl]-heptatrienoic acid derivatives having serum glucose reducing activity” (Allergan, Inc., priority 2003, dated 2005).

In one experiment the target is T1, RARβ (Homo sapiens, UniProt P10826).
T1 sequence (P10826 183-417 limits assumed): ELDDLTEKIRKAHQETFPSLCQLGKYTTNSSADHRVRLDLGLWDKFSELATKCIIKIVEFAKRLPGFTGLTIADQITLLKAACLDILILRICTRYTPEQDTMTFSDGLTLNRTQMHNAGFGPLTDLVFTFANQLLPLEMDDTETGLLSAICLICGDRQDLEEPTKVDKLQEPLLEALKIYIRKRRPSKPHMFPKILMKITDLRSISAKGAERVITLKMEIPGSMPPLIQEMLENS
In words: chimeric receptor transactivation assay, RARβ. The class given is cell-based. To be noted: for EC50: chimeric receptor transactivation, read-out: RAR Trans. EC50 β; for Emax: percentage compared to the standard compound, read-out: RAR Trans. efficacy (number in parentheses) β. The text has this: (§1) Specifically, one such assay is a chimeric receptor transactivation assay which tests for agonist-like activity in the R RAPE and RAR7 receptor subtypes, and which is based on work published by Feigner, P. L. and Holm, M (1989) Focus, 112 is described in detail in U.S. Pat. No. 5,455,265. The specification of U.S. Pat. No. 5,455,265 is hereby expressly incorporated by reference. A holoreceptor transactivation assay and a ligand binding assay which measure the antagonist/agonist like activity of the compounds of the invention, or their ability to bind to the several retinoid receptor subtypes, respectively, are described in published PCT Application No. WO WO93/11755 (particularly on pages 30-33 and 37-41) published on Jun. 24, 1993, the specification of which is also incorporated herein by reference. A detailed experimental procedure for holoreceptor transactivations has been described by Heyman et al. Cell 68, 397-406, (1992); Allegretto et al. J. Biol. Chem. 268, 26625-26633, and Mangelsdorf et al. The Retinoids: Biology, Chemistry and Medicine, pp 319-349, Raven Press Ltd., New York, which are expressly incorporated herein by reference. The results obtained in this assay are expressed in EC50 numbers, as they are also in the chimeric receptor transactivation assay. The results of the ligand binding assay are expressed in Ki numbers. (See Cheng et al. Biochemical Pharmacology Vol. 22 pp 3099-3108, expressly incorporated herein by reference.)
(§2) Efficacy in a transactivation assay is expressed as a percentage of the maximum potency attained by the compound compared to a standard which, in this case, is the compound named (2E,4E,1′S,2′S)-3-methyl-5-[2′-methyl-2′-(5,5,8,8-tetramethyl-5,6,7,8-tetrahydro-naphthalen-2-yl)-cyclopropyl]-penta-2,4-dienoic acid. This standard compound is described in U.S. Pat. No. 6,114,533.
(§3) The specification of this application for patent is organized in several sections in accordance with structural Formulas A through F each of which discloses a group of preferred compounds within the scope of the invention. Tables that disclose the activity of certain exemplary compounds of the invention in the above-described RXR receptor transactivation and binding assays are found in the corresponding sections. […] The transactivation data pertaining to the activation of RXR receptors were obtained in the holoreceptor assay.
(§4) Generally speaking, in the tables disclosing the results of transactivation and binding assays the numbers in parentheses indicate efficacy as a percentage compared to the standard compound, (2E,4E,1′S,2′S)-3-methyl-5-[2′-methyl-2′-(5,5,8,8-tetramethyl-5,6,7,8-tetrahydro-naphthalen-2-yl)cyclopropyl]-penta-2,4-dienoic acid and the other numbers indicate the measured EC50 and K; in nanomolar concentration.

For the next experiment, the target named is T2, RXRγ (UniProt P28705).
T2 sequence (P28705 1-463): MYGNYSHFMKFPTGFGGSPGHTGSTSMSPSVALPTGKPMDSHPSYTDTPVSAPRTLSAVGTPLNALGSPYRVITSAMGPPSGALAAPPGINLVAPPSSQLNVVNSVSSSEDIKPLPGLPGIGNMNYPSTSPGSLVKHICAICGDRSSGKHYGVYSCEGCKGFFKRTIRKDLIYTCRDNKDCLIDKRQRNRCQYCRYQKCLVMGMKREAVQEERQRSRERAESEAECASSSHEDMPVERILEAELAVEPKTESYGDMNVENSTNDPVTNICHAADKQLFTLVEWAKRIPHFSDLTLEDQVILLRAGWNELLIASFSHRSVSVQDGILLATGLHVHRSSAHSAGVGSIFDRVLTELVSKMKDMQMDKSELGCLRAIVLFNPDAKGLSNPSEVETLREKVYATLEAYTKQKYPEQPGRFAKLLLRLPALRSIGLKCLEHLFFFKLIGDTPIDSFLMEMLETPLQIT
Nature of the experiment: holoreceptor transactivation assay, RXRγ. Type of experiment: cell-based. To be noted: for EC50: holoreceptor transactivation, read-out: RXR Trans. EC50 γ; for RXR Trans. efficacy (number in parentheses) γ: percentage compared to the standard compound.
Text: as §1, §2, §3, §4

Another experiment has as its target T3, RARγ (Homo sapiens, UniProt P13631).
T3 sequence (P13631 1-454): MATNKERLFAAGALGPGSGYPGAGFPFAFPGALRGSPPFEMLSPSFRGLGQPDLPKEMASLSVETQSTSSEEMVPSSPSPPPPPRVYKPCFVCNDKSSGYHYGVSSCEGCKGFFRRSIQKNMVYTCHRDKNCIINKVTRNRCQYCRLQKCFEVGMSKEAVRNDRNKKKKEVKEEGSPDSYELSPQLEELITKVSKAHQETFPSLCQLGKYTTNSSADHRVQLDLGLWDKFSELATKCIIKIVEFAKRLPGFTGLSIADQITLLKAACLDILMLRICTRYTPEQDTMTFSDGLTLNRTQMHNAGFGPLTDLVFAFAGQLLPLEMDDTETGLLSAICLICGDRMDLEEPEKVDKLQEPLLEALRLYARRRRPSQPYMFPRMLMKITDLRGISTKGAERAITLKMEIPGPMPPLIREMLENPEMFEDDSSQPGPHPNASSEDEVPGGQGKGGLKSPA
Nature of the experiment: ligand binding assay, RARγ. To be noted: read-out: RAR Bind. Ki γ.
Text: as §1, §4

In another experiment the target is T4, RXRβ (UniProt P28704).
T4 sequence (P28704 1-520): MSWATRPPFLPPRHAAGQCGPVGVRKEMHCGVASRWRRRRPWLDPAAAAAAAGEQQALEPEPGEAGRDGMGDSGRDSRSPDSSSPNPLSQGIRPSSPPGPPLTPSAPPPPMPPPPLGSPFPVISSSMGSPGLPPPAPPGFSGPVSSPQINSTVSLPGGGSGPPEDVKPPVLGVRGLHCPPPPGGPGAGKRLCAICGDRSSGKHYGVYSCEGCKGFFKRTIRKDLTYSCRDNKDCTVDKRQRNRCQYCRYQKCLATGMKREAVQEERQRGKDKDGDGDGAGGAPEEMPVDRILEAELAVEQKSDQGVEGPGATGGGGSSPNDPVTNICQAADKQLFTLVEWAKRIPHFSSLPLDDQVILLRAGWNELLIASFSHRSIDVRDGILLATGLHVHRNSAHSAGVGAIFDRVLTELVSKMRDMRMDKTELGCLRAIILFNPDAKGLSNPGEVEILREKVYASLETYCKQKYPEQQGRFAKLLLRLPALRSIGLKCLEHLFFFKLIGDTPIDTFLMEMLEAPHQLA
In words: ligand binding assay, RXRβ. To be noted: read-out: RXR Bind Ki β.
Text: as §1, §4

Structures are written as SMILES.

On to `CCOc1cc2c(cc1\C(CC)=C(F)/C=C/C(C)=C/C(=O)O)C(C(C)(C)C)=CCC2(C)C` [Compound A-83, (2E,4E,6E)-7-(8-tert-Butyl-3-ethoxy-5,5-dimethyl-5,6-dihydronaphthalen-2-yl)-6-fluoro-3-methyl-nona-2,4,6-trienoic acid], for which, at RARβ, the EC50 came to 31 nM and the Emax turned out to be 12%. For the same compound, on RXRγ, the EC50 is 2 nM and the “RXR Trans. efficacy (number in parentheses) γ” value (“RXR Trans. efficacy” below) amounted to 7%. Also, at RARγ, the Ki is 698 nM. The Ki on RXRβ was found to be 12 nM.
In the case of `CCOc1cc2c(cc1\C(=C/C=C/C(C)=C/C(=O)O)CC)C(C)=CCC2(C)C` [Compound A-16, 7-(3-Ethoxy-5,5,8-trimethyl-5,6-dihydronaphthalen-2-yl)-3-methyl-nona-2E,4E,6Z-trienoic acid], at RARβ, the EC50 turned out to be 242 nM and the Emax stood at 21%. For the same compound, at RXRγ, the EC50 was found to be 32 nM and the “RXR Trans. efficacy” value came to 26%. Also, the Ki at RARγ was found to be 3800 nM. For the same compound, the Ki on RXRβ came out at 49 nM.
`COc1cc2c(cc1\C(C)=C/C=C/C(C)=C/C(=O)O)C(C(C)C)=CC(C)(C)O2` [Compound 43, 7-(4-Isopropyl-7-methoxy-2,2-dimethyl-2H-chromen-6-yl)-3-methyl-octa-2E,4E,6Z-trienoic acid]: at RARβ, the EC50 was 57 nM and the Emax amounted to 37%. Moreover, on RXRγ, the EC50 was determined as 3 nM and the “RXR Trans. efficacy” value was found to be 95%. The Ki at RARγ worked out at 2500 nM. Besides, at RXRβ, the Ki turned out to be 78 nM.
Consider `CCOc1cc2c(cc1\C(C)=C/C=C/C(C)=C/C(=O)O)C(CC)=CC(C)(C)O2` [Compound 45, 7-(7-Ethoxy-4-ethyl-2,2-dimethyl-2H-chromen-6-yl)-3-methyl-octa-2E,4E,6Z-trienoic acid], for which the EC50 on RARβ was over 1000 nM. In addition, the Ki at RARγ came to 2300 nM; at RXRβ, 343 nM.
In the case of `CCCOc1cc2c(cc1\C(C)=C(F)/C=C/C(C)=C/C(=O)O)C(C(C)(C)C)=CCC2(C)C` [Compound A-84, (2E,4E,6E)-6-Fluoro-3-(4,$dimethyl-6-n-propoxy-1-tert-butyl-3,4-dihydronaphthalen-7-yl)-3-methyl-2,4,6-octatrienoic acid], at RARβ, the EC50 worked out at 56 nM and the Emax turned out to be 8%. Also, the Ki on RARγ was 274 nM. For the same compound, the Ki at RXRβ came to 101 nM.
Consider `CC(/C=C/C(F)=C(/C)c1cc2c(cc1OCC1CC1)C(C)(C)CC=C2C(C)C)=C\C(=O)O` [Compound A-81, (2E,4E,6E)-6-Fluoro-3-(4-dimethyl-6-(cyclopropyl)methoxy-1-isopropyl-3,4-dihydronaphthalen-7-yl)-3-methyl-2,4.6-octa-trienoic acid], for which, on RARβ, the EC50 is 203 nM and the Emax worked out at 23%. Besides, the Ki on RARγ is 5600 nM. Moreover, the Ki on RXRβ turned out to be 33 nM.
Regarding `CCOc1cc2c(cc1\C(C)=C(F)/C=C/C(C)=C/C(=O)O)C(c1ccccc1)=CC(C)(C)O2` [Compound 127, (2E,4E,6E)-7-(7-Ethoxy-2,2-dimethyl-4-phenyl-2H-chromen-6-yl)-6-fluoro-3-methyl-octa-2,4,6-trienoic acid], the EC50 on RARβ worked out at 227 nM. Besides, at RARβ, the Emax stood at 17%. The Ki at RARγ worked out at 2600 nM; on RXRβ it was 554 nM.
For `CCCOc1cc2c(cc1\C(C)=C(F)/C=C/C(C)=C/C(=O)O)C(C(C)C)=CCC2(C)C` [Compound A-80] the same measures were 80 nM, 13%, 6400 nM and 56 nM.
On the same counts, the results for `CCCOc1cc2c(cc1\C(C)=C(F)/C=C/C(C)=C/C(=O)O)C(c1ccccc1)=CC(C)(C)O2` [Compound 128, (2E,4E,6E)-7-(2,2-Dimethyl-4-phenyl-7-propoxy-2H-chromen-6-yl)-6-fluoro-3-methyl-octa-2,4,6-trienoic acid] are 90 nM, 22%, 759 nM and 289 nM.

By EC50 is commonly meant the concentration at which the effect is half-maximal. In general, Ki refers to the dissociation constant of the complex between target and ligand, obtained from inhibition or displacement.
